The values that follow come from patent US11279733B2, “Peptide antibiotics” (priority 2017, dated 2022).

One data set in a line: in vitro. Particulars: human. Summed up: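 Cells were seeded at 4000 per well and allowed to attach for 24 h at 37 °C, 5% CO2, then exposed to compounds for 24 h. Resazurin (5 μM) was added for 2 h at 37 °C and fluorescence read at 560/590 nm. CC50 was derived by curve fitting of dose-dependent growth inhibition.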
The subject of data set [1] is S. aureus ATCC 25923, MSSA. The note with it: ATCC 25923. The procedure, abridged: (§1)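 Mid-log cultures grown in Mueller Hinton broth at 37° C were tested by 2-fold broth microdilution at 5×10^5 CFU/mL final. Compounds were dissolved in water and tested over a final range of 32 to 0.015 μg/mL.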
For data set [2], the system named is K. pneumoniae GN_106, PmxR. The note with it: GN 106, PmxR. The procedure, abridged:
as §1

Data set [3] deals with P. aeruginosa GN_043, PmxR. Summed up:
as §1

Data set [4] concerns K. pneumoniae ATCC 700603, MDR. The note with it: ATCC 700603. Summed up:
as §1

In another data set the test system is E. coli ATCC 25922. Particulars: ATCC 25922. The procedure, abridged:
as §1

The test system of a further data set is A. baumannii GN_093 PmxR. The note with it: GN 093 PmxR. The procedure, abridged:
as §1

The test system of data set [5] is K. pneumoniae ATCC BAA-2146, NDM-1 pos. The note with it: ATCC BAA-2146. The procedure, abridged:
as §1

Another data set concerns A. baumannii ATCC 19606. The note with it: ATCC 19606. Summed up:
as §1

For data set [6], the system named is P. aeruginosa GN_105, PmxR. The note with it: GN 105, PmxR. Summed up: as §1
For data set [7], the system named is K. pneumoniae GN_102 PmxR. Particulars: GN 102 PmxR. Summed up: as §1
For another data set, the system named is K. pneumoniae ATCC 13883. Particulars: ATCC 13883. The procedure, abridged: as §1
For another data set, the system named is P. aeruginosa ATCC 27853. The note with it: ATCC 27853. Summed up: as §1

Values after ≈ are worked out from the molar mass of the structure shown. Where two headings read alike, the source gives them in different places. Positions of bridges follow the written chain, without caps; N, C: chain ends. Non-standard residues stand in square brackets, D forms with d. Residues, ends and D or L forms follow the SMILES beside them. *: point of attachment. Benzoyl(4-Ph) = O=C(c1ccc(-c2ccccc2)cc1)*; Decanoyl(3R-OH) = CCCCCCC[C@@H](O)CC(=O)*; X4 = CCCCCOc1ccc(C(=O)*)cc1; dOrn = NCCC[C@@H](N)C(=O)O; dDab = NCC[C@@H](N)C(=O)O; Dab = NCC[C@H](N)C(=O)O

`CCCCCCC[C@@H](O)CC(=O)N[C@H](CC(N)=O)C(=O)N[C@H]1CCNC(=O)[C@H](CC(C)C)NC(=O)[C@H](CCN)NC(=O)[C@H](CCN)NC(=O)[C@H](Cc2ccccc2)NC(=O)[C@@H](CC(C)C)NC(=O)[C@H](CCN)NC1=O` [compound 6432, 3(R)OH-nC9CO-D-Asn-cyc[L-Dab-L-Dab-D-Leu-L-Phe-L-Dab-L-Dab-L-Leu]] ({Decanoyl(3R-OH)}-[dN][Dab][Dab][dL]F[Dab][Dab]L; lactam 2-C): in “in vitro”, the CC50 at 24 h is greater than 300 µM. Further, the “MIC S. aureus ATCC 25923, MSSA” value in [1] is greater than 32 µg/mL. For the same molecule, in data set [2], the “MIC K. pneumoniae GN_106, PmxR” value turned out to be 4 µg/mL (≈ 3.78 µM). In addition, the “MIC P. aeruginosa GN_043, PmxR” value in [3] (P. aeruginosa GN_043, PmxR) came to 4 µg/mL (≈ 3.78 µM). Also, in [4], the “MIC K. pneumoniae ATCC 700603, MDR” value came out at 16 µg/mL (≈ 15.1 µM). Further, in the data set with E. coli ATCC 25922, the “MIC E. coli ATCC 25922” value is 16 µg/mL (≈ 15.1 µM). Also, in the data set with A. baumannii GN_093 PmxR, the “MIC A. baumannii GN_093 PmxR” value was greater than 32 µg/mL. The “MIC K. pneumoniae ATCC BAA-2146, NDM-1 pos” value in [5] came to 16 µg/mL (≈ 15.1 µM). In addition, in the data set on A. baumannii ATCC 19606, the “MIC A. baumannii ATCC 19606” value is 32 µg/mL (≈ 30.2 µM). Besides, in data set [6], the “MIC P. aeruginosa GN_105, PmxR” value came to 8 µg/mL (≈ 7.56 µM). In data set [7], the “MIC K. pneumoniae GN_102 PmxR” value was 4 µg/mL (≈ 3.78 µM). Besides, in the data set on K. pneumoniae ATCC 13883, the “MIC K. pneumoniae ATCC 13883” value is 16 µg/mL (≈ 15.1 µM). The “MIC P. aeruginosa ATCC 27853” value in the data set with P. aeruginosa ATCC 27853 stood at 16 µg/mL (≈ 15.1 µM).

In “in vitro”, `CCCCCCC[C@@H](O)CC(=O)N[C@H](CCCN)C(=O)N[C@H]1CCNC(=O)[C@H](CC(C)C)NC(=O)[C@H](CCN)NC(=O)[C@H](CCN)NC(=O)[C@H](CC(C)C)NC(=O)[C@@H](Cc2ccccc2)NC(=O)[C@H](CCN)NC1=O` [compound 6443, 3(R)OH-nC9CO-D-Orn-cyc[L-Dab-L-Dab-D-Phe-L-Leu-L-Dab-L-Dab-L-Leu]] ({Decanoyl(3R-OH)}-[dOrn][Dab][Dab][dF]L[Dab][Dab]L; lactam 2-C) yielded a CC50 at 24 h greater than 300 µM. Also, the “MIC, S. aureus ATCC 25923, MSSA” value in data set [1] is 32 µg/mL (≈ 30.2 µM). Further, the “MIC K. pneumoniae GN_106, PmxR” value in data set [2] was 4 µg/mL (≈ 3.78 µM). The “MIC P. aeruginosa GN_043, PmxR” value in data set [3] (Table 6, polymyxin-resistant) came to 2 µg/mL (≈ 1.89 µM). Further, in data set [4], the “MIC, K. pneumoniae ATCC 700603, MDR” value came out at 8 µg/mL (≈ 7.56 µM). The “MIC, E. coli ATCC 25922” value with E. coli ATCC 25922 stood at 8 µg/mL (≈ 7.56 µM). Besides, the “MIC A. baumannii GN_093 PmxR” value in the data set on A. baumannii GN_093 PmxR came out at 16 µg/mL (≈ 15.1 µM). The “MIC, K. pneumoniae ATCC BAA-2146, NDM-1 pos” value in data set [5] was 8 µg/mL (≈ 7.56 µM). Moreover, the “MIC, A. baumannii ATCC 19606” value with A. baumannii ATCC 19606 was determined as 16 µg/mL (≈ 15.1 µM). For the same molecule, the “MIC P. aeruginosa GN_105, PmxR” value in data set [6] came out at 2 µg/mL (≈ 1.89 µM). For the same molecule, the “MIC K. pneumoniae GN_102 PmxR” value in data set [7] came to 4 µg/mL (≈ 3.78 µM). Further, in the data set on K. pneumoniae ATCC 13883, the “MIC, K. pneumoniae ATCC 13883” value was 8 µg/mL (≈ 7.56 µM). For the same molecule, the “MIC, P. aeruginosa ATCC 27853” value against P. aeruginosa ATCC 27853 is 2 µg/mL (≈ 1.89 µM).

Take `CCCCCOc1ccc(C(=O)N[C@H](CCN)C(=O)N[C@H]2CCNC(=O)[C@H](CC(C)C)NC(=O)[C@H](CCN)NC(=O)[C@H](CCN)NC(=O)[C@H](Cc3ccccc3)NC(=O)[C@@H](CC(C)C)NC(=O)[C@H](CCN)NC2=O)cc1` [compound 6520, 4-(pentyloxy)benzoic acid-D-Dab-cyc[L-Dab-L-Dab-D-Leu-L-Phe-L-Dab-L-Dab-L-Leu]] (X4-[dDab][Dab][Dab][dL]F[Dab][Dab]L; lactam 2-C): in the data set “in vitro”, the CC50 at 24 h was greater than 300 µM. The “MIC S. aureus ATCC 25923, MSSA” value in data set [1] was 32 µg/mL (≈ 30.1 µM). Besides, the “MIC K. pneumoniae GN_106, PmxR” value in data set [2] is greater than 32 µg/mL. For the same molecule, the “MIC P. aeruginosa GN_043, PmxR” value in data set [3] (P. aeruginosa GN_043, PmxR) was determined as 4 µg/mL (≈ 3.76 µM). In addition, in data set [4], the “MIC K. pneumoniae ATCC 700603, MDR” value is 8 µg/mL (≈ 7.52 µM). For the same molecule, the “MIC E. coli ATCC 25922” value in the data set with E. coli ATCC 25922 amounted to 2 µg/mL (≈ 1.88 µM). In the data set with A. baumannii GN_093 PmxR, the “MIC A. baumannii GN_093 PmxR” value was 32 µg/mL (≈ 30.1 µM). In addition, in data set [5], the “MIC K. pneumoniae ATCC BAA-2146, NDM-1 pos” value worked out at 8 µg/mL (≈ 7.52 µM). Further, the “MIC A. baumannii ATCC 19606” value with A. baumannii ATCC 19606 was greater than 32 µg/mL. For the same molecule, the “MIC P. aeruginosa GN_105, PmxR” value in data set [6] is 4 µg/mL (≈ 3.76 µM). The “MIC K. pneumoniae GN_102 PmxR” value in data set [7] worked out at 32 µg/mL (≈ 30.1 µM). The “MIC K. pneumoniae ATCC 13883” value in the data set on K. pneumoniae ATCC 13883 was determined as 32 µg/mL (≈ 30.1 µM). Further, the “MIC P. aeruginosa ATCC 27853” value in the data set on P. aeruginosa ATCC 27853 came to 4 µg/mL (≈ 3.76 µM).

With `CC(C)C[C@@H]1NC(=O)[C@H](CCN)NC(=O)[C@H](CCN)NC(=O)[C@H](CC(C)C)NC(=O)[C@@H](Cc2ccccc2)NC(=O)[C@H](CCN)NC(=O)[C@@H](NC(=O)[C@@H](CCN)NC(=O)c2ccc(-c3ccccc3)cc2)CCNC1=O` [compound 6526, Ph-4-PhCO-D-Dab-cyc[L-Dab-L-Dab-D-Phe-L-Leu-L-Dab-L-Dab-L-Leu]] ({Benzoyl(4-Ph)}-[dDab][Dab][Dab][dF]L[Dab][Dab]L; lactam 2-C), the CC50 at 24 h in “in vitro” is greater than 300 µM. For the same molecule, in [1], the “MIC S. aureus ATCC 25923, MSSA” value is greater than 32 µg/mL. Moreover, the “MIC K. pneumoniae GN_106, PmxR” value in data set [2] was greater than 32 µg/mL. Moreover, the “MIC P. aeruginosa GN_043, PmxR” value in data set [3] is 1 µg/mL (≈ 0.948 µM). In addition, the “MIC K. pneumoniae ATCC 700603, MDR” value in data set [4] stood at 8 µg/mL (≈ 7.59 µM). In addition, the “MIC E. coli ATCC 25922” value against E. coli ATCC 25922 is 8 µg/mL (≈ 7.59 µM). For the same molecule, the “MIC A. baumannii GN_093 PmxR” value in the data set with A. baumannii GN_093 PmxR was greater than 32 µg/mL. Moreover, the “MIC K. pneumoniae ATCC BAA-2146, NDM-1 pos” value in data set [5] amounted to 8 µg/mL (≈ 7.59 µM). Further, the “MIC A. baumannii ATCC 19606” value in the data set on A. baumannii ATCC 19606 was greater than 32 µg/mL. Besides, the “MIC P. aeruginosa GN_105, PmxR” value in data set [6] was 4 µg/mL (≈ 3.79 µM). In [7], the “MIC K. pneumoniae GN_102 PmxR” value is 32 µg/mL (≈ 30.4 µM). The “MIC K. pneumoniae ATCC 13883” value in the data set on K. pneumoniae ATCC 13883 came out at 8 µg/mL (≈ 7.59 µM). The “MIC P. aeruginosa ATCC 27853” value against P. aeruginosa ATCC 27853 worked out at 2 µg/mL (≈ 1.9 µM).
